# Data published in patent publication US4103082A, “Aminocyclitol derivatives and process for producing the same” (priority 1975, dated 1978).
# Assays:
# [1] = test system: antibiotic-resistant microorganisms; settings: J. Antibiotics, 24 (10) 711, (1971); cited from earlier work
# [2] = test system: Staphylococcus aureus 6538P; test: paper disk method, inhibitory zone diameter; format: cell-based; settings: read-out: inhibitory zone diameter
# Klebsiella 7 = test: paper disk method, inhibitory zone diameter; format: cell-based; settings: Klebsiella, 7, read-out: inhibitory zone diameter
# [3] = test system: Bacillus subtilis ATCC 6633; test: paper disk method, inhibitory zone diameter; format: cell-based; settings: ATCC6633, read-out: inhibitory zone diameter
# Klebsiella 6 = test: paper disk method, inhibitory zone diameter; format: cell-based; settings: Klebsiella, 6, read-out: inhibitory zone diameter
# E. coli K-12 = test: paper disk method, inhibitory zone diameter; format: cell-based; settings: Escherichia coli, K12, read-out: inhibitory zone diameter
# Pseudomonas 1007 = test: paper disk method, inhibitory zone diameter; format: cell-based; settings: Pseudomonas, 1007, read-out: inhibitory zone diameter
# [4] = test system: E. coli HL-1629 (Kanamycin-resistant strain); test: microbe, parasite or virus in culture; format: cell-based; settings: Escherichia coli, read-out: inhibitory zone diameter
# Mycobacterium 607 = test: paper disk method, inhibitory zone diameter; format: cell-based; settings: Mycobacterium, 607, read-out: inhibitory zone diameter
# [5] = test system: Enterococcus species C73-33; test: antibacterial activity (Minimum Inhibitory Concentration); format: cell-based; settings: Enterococcus, C7333
# [6] = test system: Enterococcus species C73-17; test: as above; format: cell-based; settings: Enterococcus, C7317
# [7] = test system: Vibrio parahaemolyticus K-5; test: as above; format: cell-based; settings: Vibrio parahaemolyticus, K5
# [8] = test system: Staphylococcus aureus C73-10; test: as above; format: cell-based; settings: Staphylococcus aureus, C7310
# Proteus species C73-23 = test: as above; format: cell-based
# [9] = test system: Bacillus anthracis No. 119; test: microbe, parasite or virus in culture; format: cell-based
# [10] = test system: Vibrio parahaemolyticus K-7; test: antibacterial activity (Minimum Inhibitory Concentration); format: cell-based; settings: Vibrio parahaemolyticus, K7
# [11] = test system: Staphylococcus albus PCI-1200A; test: as above; format: cell-based; settings: Staphylococcus, PCI1200A
# [12] = test system: Staphylococcus aureus No. 26; test: as above; format: cell-based; settings: Staphylococcus aureus, NO.26
# [13] = test system: Staphylococcus aureus Smith S-424; test: as above; format: cell-based; settings: Staphylococcus aureus, SMITHS424
# [14] = test system: Staphylococcus aureus C73-4; test: as above; format: cell-based; settings: Staphylococcus aureus, C734
# [15] = test system: Staphylococcus aureus 209P JC-1; test: as above; format: cell-based; settings: Staphylococcus aureus, 209P
# [16] = test system: Salmonella species C73-30; test: as above; format: cell-based; settings: C7330
# [17] = test system: Staphylococcus aureus C73-21; test: as above; format: cell-based; settings: Staphylococcus aureus, C7321
# [18] = test system: Shigella dysenteriae Shigae; test: microbe, parasite or virus in culture; format: cell-based
# Proteus species C73-34 = test: antibacterial activity (Minimum Inhibitory Concentration); format: cell-based
# Proteus species C73-33 = test: as above; format: cell-based
# [19] = test system: Vibrio parahaemolyticus K-3; test: as above; format: cell-based; settings: Vibrio parahaemolyticus, K3
# E. coli C73-1 = test: as above; format: cell-based; settings: Escherichia coli, C731
# Proteus species C73-25 = test: as above; format: cell-based
# E. coli C73-12 = test: as above; format: cell-based; settings: Escherichia coli, C7312
# [20] = test system: Bacillus subtilis ATCC 6633; test: as above; format: cell-based; settings: Bacillus subtilis, ATCC6633
# Proteus morganii Kono = test: as above; format: cell-based; settings: Morganella morganii
# E. coli C73-4 = test: as above; format: cell-based; settings: Escherichia coli, C734
# Klebsiella pneumoniae = test: as above; format: cell-based
smiles,measurement,setting,value
"NC[C@@H]1CC[C@@H](N)[C@@H](O[C@H]2[C@H](O)[C@@H](O)[C@H](N)C[C@@H]2N)O1 [3',4'-deoxyneamine]",antimicrobial activities against antibiotic-resistant microorganisms,[1],exhibits antimicrobial activities against various antibiotic-resistant microorganisms
"NC[C@H]1O[C@H](O[C@H]2[C@H](O)[C@@H](O)[C@H](N)C[C@@H]2N)[C@H](N)[C@@H](O)[C@@H]1O [Neamine, neamine, reference compound]",zone of inhibition at 7.8 µg/mL,[2],0 mm
same,zone of inhibition at 15.6 µg/mL,[2],0 mm
same,zone of inhibition at 31.2 µg/mL,[2],0 mm
same,zone of inhibition at 62.5 µg/mL,[2],10 mm
same,zone of inhibition at 125 µg/mL,[2],13 mm
same,zone of inhibition at 250 µg/mL,[2],15.3 mm
same,zone of inhibition at 500 µg/mL,[2],18.3 mm
same,zone of inhibition at 1000 µg/mL,[2],20.7 mm
same,zone of inhibition at 2000 µg/mL,[2],22.8 mm
same,zone of inhibition at 2000 µg/mL,Klebsiella 7,0 mm
same,zone of inhibition at 7.8 µg/mL,[3],11.5 mm
same,zone of inhibition at 15.6 µg/mL,[3],14 mm
same,zone of inhibition at 31.2 µg/mL,[3],17 mm
same,zone of inhibition at 62.5 µg/mL,[3],19.9 mm
same,zone of inhibition at 125 µg/mL,[3],23 mm
same,zone of inhibition at 250 µg/mL,[3],25 mm
same,zone of inhibition at 500 µg/mL,[3],28.7 mm
same,zone of inhibition at 1000 µg/mL,[3],31 mm
same,zone of inhibition at 2000 µg/mL,[3],33.5 mm
same,zone of inhibition at 2000 µg/mL,Klebsiella 6,0 mm
same,zone of inhibition at 7.8 µg/mL,E. coli K-12,0 mm
same,zone of inhibition at 15.6 µg/mL,E. coli K-12,0 mm
same,zone of inhibition at 31.2 µg/mL,E. coli K-12,11.4 mm
same,zone of inhibition at 62.5 µg/mL,E. coli K-12,14.3 mm
same,zone of inhibition at 125 µg/mL,E. coli K-12,17.2 mm
same,zone of inhibition at 250 µg/mL,E. coli K-12,20.4 mm
same,zone of inhibition at 500 µg/mL,E. coli K-12,22.6 mm
same,zone of inhibition at 1000 µg/mL,E. coli K-12,25.2 mm
same,zone of inhibition at 2000 µg/mL,E. coli K-12,27.4 mm
same,zone of inhibition at 2000 µg/mL,Pseudomonas 1007,0 mm
same,zone of inhibition at 1000 µg/mL,[4],0 mm
same,zone of inhibition at 2000 µg/mL,[4],12.3 mm
same,zone of inhibition at 62.5 µg/mL,Mycobacterium 607,0 mm
same,zone of inhibition at 125 µg/mL,Mycobacterium 607,0 mm
same,zone of inhibition at 250 µg/mL,Mycobacterium 607,14.8 mm
same,zone of inhibition at 500 µg/mL,Mycobacterium 607,20.4 mm
same,zone of inhibition at 1000 µg/mL,Mycobacterium 607,26.4 mm
same,zone of inhibition at 2000 µg/mL,Mycobacterium 607,32.5 mm
"NC[C@H]1O[C@H](O[C@H]2[C@H](O)[C@@H](O)[C@H](N)C[C@@H]2N)[C@H](N)[C@@H](O)[C@@H]1O [Neomycin A, reference compound]",MIC,[5],12.5 µg/mL
same,MIC,[6],100 µg/mL
same,MIC,[7],50 µg/mL
same,MIC,[8],3.13 µg/mL
same,MIC,Proteus species C73-23,25 µg/mL
same,MIC,[9],12.5 µg/mL
same,MIC,[10],50 µg/mL
same,MIC,[11],0.78 µg/mL
same,MIC,[12],3.13 µg/mL
same,MIC,[13],1.56 µg/mL
same,MIC,[14],3.13 µg/mL
same,MIC,[15],0.78 µg/mL
same,MIC,[16],25 µg/mL
same,MIC,[17],0.78 µg/mL
same,MIC,[18],12.5 µg/mL
same,MIC,Proteus species C73-34,25 µg/mL
same,MIC,Proteus species C73-33,100 µg/mL
same,MIC,[19],1.56 µg/mL
same,MIC,E. coli C73-1,25 µg/mL
same,MIC,Proteus species C73-25,6.25 µg/mL
same,MIC,E. coli C73-12,12.5 µg/mL
same,MIC,[20],1.56 µg/mL
same,MIC,Proteus morganii Kono,12.5 µg/mL
same,MIC,E. coli C73-4,25 µg/mL
same,MIC,Klebsiella pneumoniae,12.5 µg/mL
